From patent publication US12473291B2 (priority 2019, dated 2025)
Structures can show the parent of a compound that is named as a salt. Where two headings read alike, the source gives them in different places.

Tests used:
[1] = system: SD rats; experiment: animal or person; type: in vivo; settings: for ED50: SD rats (male, 220-300 g), injection via the tail vein, disappearance of righting reflex; for 2ED50 duration / 2ED50 recovery time / Quality of recovery: SD rats; for 2ED50 duration / 2ED50 recovery time: single tail vein injection at 2×ED50; for 2ED50 duration: time from disappearance to recovery of righting reflex; for 2ED50 recovery time: time from recovery of righting reflex to free crawling; for Quality of recovery: tail vein injection; for duration and recovery time compared with remimazolam / effective dose compared with remimazolam: rats, tail vein, in words
[2] = system: KM mice; experiment: animal or person; type: in vivo; settings: for 2ED50 duration / 2ED50 recovery time / Quality of recovery: KM mice; for 2ED50 duration / 2ED50 recovery time: single tail vein injection at 2×ED50; for 2ED50 duration: time from disappearance to recovery of righting reflex; for 2ED50 recovery time: time from recovery of righting reflex to free crawling; for Quality of recovery: tail vein injection; for ED50: KM mice (male, 18-22 g), injection via the tail vein, disappearance of righting reflex; for duration and recovery time compared with remimazolam / effective dose compared with remimazolam: mice, tail vein, in words
[3] = Rattus norvegicus, read-out: ED50

Compound | ED50 [1, 3] [mg/kg] | 2ED50 duration [1] [min] | 2ED50 recovery time [1] [min] | Quality of recovery [1] | 2ED50 duration [2] [min] | 2ED50 recovery time [2] [min] | Quality of recovery [2] | ED50 ([2]; Mus musculus, read-out: ED50) [mg/kg] | duration and recovery time compared with remimazolam [1] | effective dose compared with remimazolam [1] | duration and recovery time compared with remimazolam [2] | effective dose compared with remimazolam [2] | ED50 [1] [mg/kg] | ED50 [2] [mg/kg]
COC1N(C)CC(CC(OC(=O)CC[C@@H]2N=C(c3ccccn3)c3cc(OC(F)(F)F)cc(C)c3-n3c(C)cnc32)OC(=O)OC(C(C)C)C(C)C)CN1C (stereo partly shown) [Example 83] | 6.1 | 2.09 | 2.09 | +++ (“+++” means 3-5 min) | 3.26 | 2.46 | +++ (“+++” means 3-5 min) | 30.1 |  |  |  |  |  | 
CCOC(=O)COC(=O)CC[C@@H]1N=C(c2ccccn2)c2cc(Br)ccc2-n2c(C)cnc21 [Example 57, 2-Ethoxy-2-oxoethyl-3-((4S)-8-bromo-1-methyl-6-(pyridine-2-yl)-4H-benzo [f]imidazo[1,2-a][1,4]diaza-4-ylpropionate] | 4.7 | 5.07 | 2.41 | + (“+” means <1 min) | 3.90 | 2.31 |  | 25 | significantly shorter | significantly lower | significantly shorter | significantly lower |  | 
COC(=O)C1(OC(=O)CC[C@@H]2N=C(c3ccccn3)c3c(Cl)cc(C(F)(F)F)cc3-n3c(C)cnc32)CC1 [Example 39] | 6.7 | 4.03 | 2.48 | ++ (“++” means 1-3 min) | 5.09 | 2.28 | +++ (“+++” means 3-5 min) | 26.7 |  |  |  |  |  | 
COC(=O)C1(OC(=O)CC[C@@H]2N=C(c3ccccn3)c3cc(Cl)c(C(F)(F)F)cc3-n3c(C)cnc32)CC1 [Example 40] |  | 4.06 | 2.01 | ++ (“++” means 1-3 min) | 4.26 | 1.55 | ++ (“++” means 1-3 min) |  |  |  |  |  | 6.8 | 24.8
Cc1cnc2n1-c1cc(C(F)(F)F)c(Cl)cc1C(c1cccnc1)=N[C@H]2CCC(=O)OCOC(=O)OC(C)C [Example 32] | 3.1 | 3.34 | 2.41 | +++ (“+++” means 3-5 min) | 4.34 | 2.01 | ++++ (“++++” means 5-10 min) | 31.1 |  |  |  |  |  | 
CCCOC(=O)C1(OC(=O)CC[C@@H]2N=C(c3ccccn3)c3c(cc(OC(F)(F)F)c(Cl)c3C)-n3c(C)cnc32)CC1 [Example 75] | 5.8 | 2.26 | 2.15 | +++ (“+++” means 3-5 min) | 3.53 | 1.58 | +++ (“+++” means 3-5 min) | 29.1 |  |  |  |  |  | 
Cc1cc2c(c(C)c1C)C(c1ccccn1)=N[C@@H](CCC(=O)OCC(=O)OC(C)C)c1ncc(C)n1-2 [Example 76, 2-Isopropoxy-2-oxoethyl-3-(((4S)-1,7,8,9-tetramethyl-6-(pyridine-2-yl)-4H-benzo[f]imidazo[1,2-a][1,4]diaza-4-ylpropionate phosphate] | 6.3 | 2.47 | 2.23 | +++ (“+++” means 3-5 min) | 3.28 | 2.49 | ++++ (“++++” means 5-10 min) | 27.8 |  |  |  |  |  | 
CCC(CC)OC(=O)OCOC(=O)CC[C@@H]1N=C(c2ccccn2)c2cc(Br)c(Br)cc2-n2c(C)cnc21 [Example 12] | 5.7 | 5.24 | 2.04 | ++ (“++” means 1-3 min) | 5.32 | 2.04 | +++ (“+++” means 3-5 min) | 31.3 |  |  |  |  |  | 
CCOC(=O)C(C)OC(=O)CC[C@@H]1N=C(c2ccccn2)c2cc(Br)ccc2-n2c(C)cnc21 (stereo partly shown) [Example 61] | 2.7 | 1.21 | 2.01 | ++ (“++” means 1-3 min) | 3.01 | 1.58 | +++ (“+++” means 3-5 min) | 29.9 |  |  |  |  |  | 
CCOC(=O)OC(C)OC(=O)CC[C@@H]1N=C(c2ccccn2)c2cc(Br)ccc2-n2c(C)cnc21 (stereo partly shown) [Example 54] | 6.4 | 3.22 | 2.52 | +++ (“+++” means 3-5 min) | 8.52 | 1.56 |  | 25 | significantly shorter | significantly lower | significantly shorter | significantly lower |  | 
CCOC(=O)OCOC(=O)CC[C@@H]1N=C(c2ccccn2)c2ccc(Cl)cc2-n2c(C)cnc21 [Example 36] | 2.8 | 3.14 | 2.39 | +++ (“+++” means 3-5 min) | 4.34 | 1.49 | +++ (“+++” means 3-5 min) | 27.8 |  |  |  |  |  | 
COC(=O)OC(C)OC(=O)CC[C@@H]1N=C(c2ccccn2)c2cc(Br)ccc2-n2c(C)cnc21 (stereo partly shown) [Example 53] | 6 | 3.18 | 2.47 | ++ (“++” means 1-3 min) | 3.61 | 2.41 |  | 25.7 | significantly shorter | significantly lower | significantly shorter | significantly lower |  | 
COC(=O)C(C)(C)OC(=O)CC[C@@H]1N=C(c2ccccn2)c2cc(Br)ccc2-n2c(C)cnc21 [Example 62, Methyl 2-((3-((4S)-8-bromo-1-methyl-6-(pyridine-2-yl)-4H-benzo[f]imidazo [1,2-a][1,4]diaza-4-yl)propionyl)oxy)-2-methylpropionate] | 1.3 | 1.08 | 2.14 | +++ (“+++” means 3-5 min) | 3.23 | 1.27 | +++ (“+++” means 3-5 min) | 13.5 |  |  |  |  |  | 
COC(=O)COC(=O)CC[C@@H]1N=C(c2ccccn2)c2cc(F)c(OC)cc2-n2c(C)cnc21 [Example 27] | 6.3 | 1.16 | 1.05 | + (“+” means <1 min) | 1.46 | 1.20 |  | 15.3 | significantly shorter | significantly lower | significantly shorter | significantly lower |  | 
CC(=O)O.COC(=O)C1(OC(=O)CC[C@@H]2N=C(c3ccccn3)c3cc(Cl)c(OC(F)(F)F)cc3-n3c(C)cnc32)CC1 [Example 42] |  | 0.51 | 0.31 | + (“+” means <1 min) | 0.58 | 0.53 | + (“+” means <1 mm) |  | significantly shorter | significantly lower | significantly shorter | significantly lower | 4.7 | 8.7
COC(=O)C(OC(=O)CC[C@@H]1N=C(c2ccccn2)c2cc(Cl)cc(OC(F)(F)F)c2-n2c(C)cnc21)C1CCCCCCCCC1 (stereo partly shown) [Example 82] | 5.8 | 2.15 | 2.10 | ++ (“++” means 1-3 min) | 3.54 | 2.13 | +++ (“+++” means 3-5 min) | 29.8 |  |  |  |  |  | 
COC(=O)C1(OC(=O)CC[C@@H]2N=C(c3ccccn3)c3cc(Br)c(Br)cc3-n3c(C)cnc32)CC1 [Example 18] | 4.8 | 4.49 | 2.58 | +++ (“+++” means 3-5 min) | 5.09 | 2.49 | +++ (“+++” means 3-5 min) | 30.1 |  |  |  |  |  | 
COc1cc(C)cc2c1-n1c(C)cnc1[C@H](CCC(=O)OC1(C(=O)OC(C)C)CC1)N=C2c1ccccn1 [Example 80, Isopropyl 1-((3-((4S)-10-methoxy-1,8-dimethyl-6-(pyridine-2-yl)-4H-benzo[f]imidazo[1,2-a][1,4]diaza-4-yl)propionyl)oxy) cyclopropane-1-carboxylate methyl sulfate] | 6.7 | 2.36 | 2.18 | ++ (“++” means 1-3 min) | 3.56 | 2.01 | +++ (“+++” means 3-5 min) | 30.9 |  |  |  |  |  | 
